Measurements as given in the NIST ThermoML archive (doi:10.1021/acs.jced.8b00814).
Numbers after ± are expanded uncertainties.

Conditions: 101.33 kPa, Liquid, Vibrating tube method

SMILES: O [water]
- mass density (283.15 K): 999.66 ± 1.9 kg/m3
- mass density (308.15 K): 994.11 ± 1.9 kg/m3
- mass density (313.15 K): 992.32 ± 1.9 kg/m3
- mass density (318.15 K): 990.34 ± 1.9 kg/m3
- mass density (323.15 K): 988.18 ± 1.9 kg/m3
- mass density (328.15 K): 985.87 ± 1.9 kg/m3
- mass density (333.15 K): 983.4 ± 1.9 kg/m3
- mass density (338.15 K): 980.78 ± 1.9 kg/m3
- mass density (343.15 K): 978.02 ± 1.9 kg/m3
- mass density (348.15 K): 975.13 ± 1.9 kg/m3
- mass density (353.15 K): 972.11 ± 1.9 kg/m3
- mass density (358.15 K): 968.95 ± 1.9 kg/m3
- mass density (363.15 K): 965.71 ± 1.9 kg/m3
